According to US20050008623A1, “In vitro production of dendritic cells from CD14+ monocytes” (priority 2001, published 2005):

How the values were obtained:
Type in all cases: cell-based, human
[1] = tested on: Langerhans cells generated in vitro; assay: Chemoattraction and migration of Langerhans cells of Example 6
[2] = tested on: dendritic cells generated in vitro (CCR6 receptor); assay: Chemoattraction of undifferentiated immature dendritic cells (CCR6 functionality); settings: day 6 cells of Example 4
Experimental: The culture medium is initially supplemented with a third cytokine, namely the cytokine IL-13 at a rate of 10 ng/ml. Before 2 days of culture at the most, the same culture medium devoid of IL-13 is added up to day 6 of culture.

Langerin+LC population = assay: Maturation marker DC-LAMP expression after TNFα, Langerhans cells; settings: 200 IU/ml for 48 hours from day 6
Experimental: (§1) On day 6, the cytokine TNFα is added at a rate of 200 IU/ml for 48 h.
(§2) The advantage of a substantially homogeneous dual population of LC and IDC is the possibility of interacting with both cell types as in the in vivo situation. To study the maturation pathways of LC and IDC generated in vitro, we analyzed the intracytoplasmic expression of maturation marker DC-LAMP on both LC and IDC. To this end, the experiments were performed according to the following protocol: • 2.10^5 cells of a mixed population comprising LC and IDC generated in vitro are incubated successively with: • either 5 microliters of anti-DC-SIGN antibody (2 micrograms/milliliter) or 10 microliters of anti-Langerin antibody (2 micrograms/milliliter), for 30 minutes at 4° C.; • 10 microliters of anti-mouse goat antibody coupled with the fluorochrom FITC (Fluorescein IsoThioCyanate) at the concentration of 1 microgram/milliliter for 30 min at 4° C.; • blocking with normal mouse serum diluted to 1/20; • 10 microliters of anti-DC-LAMP antibody coupled with fluorochrom PE (PhycoErythrin) at the concentration of 1 microgram/milliliter for 30 minutes at 4° C. • the results are expressed as the percentage of LC which are DC-LAMP positive and IDC which are DC-LAMP positive. […]

IDC (DC-SIGN+) = assay: Maturation marker DC-LAMP expression after TNFα, interstitial dendritic cells; settings: 200 IU/ml for 48 hours from day 6
Experimental: as §1, §2

[3] = tested on: dendritic cells generated in vitro (CCR7 receptor); assay: Chemoattraction of activated mature dendritic cells (CCR7 functionality); settings: activated mature cells of Example 8 (TNFα more than 20 hours)
Experimental: Within the framework of the invention, the culture medium is initially supplemented with a third cytokine, namely the cytokine IL-13 at a rate of 10 ng/ml. The culture is carried out up to day 6, irrespective of the incubation time of the cytokine IL-13.

IL-1β: cytokine under whose effect Langerhans cells migrate
migration of Langerhans cells [1]: migrating

MIP-3α: ligand of the specific receptor CCR6
chemoattraction of dendritic cells [2]: strongly chemoattracted | chemoattraction of Langerhans cells [1]: capable of being chemoattracted

TNFα
percentage of LC which are DC-LAMP positive (Langerin+LC population): 50% | expression of maturation marker DC-LAMP on IDC (IDC (DC-SIGN+)): do not express

B1: MIP-3β: ligand of the specific receptor CCR7 (protein, UniProt Q99731 22-98, looked up)
C-C motif chemokine 19: GTNDAEDCCLSVTQKPIPGYIVRNFHYLLIKDGCRVPAVVFTTLRGRQLCAPPDQPWVERIIQRLQRTSAKMKRRSS
chemoattraction of dendritic cells [3]: strongly chemoattracted
